Source: patent US20260062426A1, “CYCLIN DEPENDENT KINASE DEGRADERS AND METHODS OF USE THEREOF” (Differentiated Therapeutics Inc, priority 2023, published 2026)

Legend:
Assay type in all cases: cell-based
CCNE1 = biological target: T1, CCNE1 (Homo sapiens, UniProt P24864+P24941); assay: CCNE1 HIBIT PQ (protein quantification), degradation; details: for CCNE1 HIBIT PQ Max (%): Max = Maximum; for DC50: PQ = Protein Quantification
T1 construct: host or cells: HEK293
In short: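 Compound was applied for 6 hours to HEK293 cells expressing HiBiT-tagged CCNE1, which had been seeded overnight in 384-well plates at 1.6×10⁵ cells/well. CCNE1 protein was then read by HiBiT assay against a high control of 0.1% DMSO-treated cells and a low control of medium only. These readings gave DC50 and maximal degradation.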

CDK9 = biological target: T2, CDK9 (Homo sapiens, UniProt P50750); assay: CDK9 HIBIT PQ (protein quantification), degradation; details: for Dmax: Max = Maximum; for DC50: PQ = Protein Quantification
T2 construct: host or cells: HEK293
T2 sequence (P50750 whole entry): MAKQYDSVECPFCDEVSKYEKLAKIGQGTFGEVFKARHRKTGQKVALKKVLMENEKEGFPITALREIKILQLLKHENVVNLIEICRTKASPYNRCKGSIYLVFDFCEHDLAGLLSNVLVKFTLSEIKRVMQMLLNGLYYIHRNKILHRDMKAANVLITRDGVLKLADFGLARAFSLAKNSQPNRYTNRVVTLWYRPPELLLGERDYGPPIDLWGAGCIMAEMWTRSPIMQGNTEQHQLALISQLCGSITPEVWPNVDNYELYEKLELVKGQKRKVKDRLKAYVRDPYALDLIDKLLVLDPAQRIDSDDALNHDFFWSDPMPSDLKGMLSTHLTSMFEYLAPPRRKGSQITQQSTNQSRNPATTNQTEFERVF
In short: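 HEK293 cells bearing HiBiT-tagged CDK9 were cultured in DMEM with 10% FBS, plated into 384-well plates at 1.6×10^5 cells/well in 50 uL, and left overnight at 37° C and 5% CO2. A HiBiT assay measured CDK9 protein after compound treatment, with 0.1% DMSO-treated cells as the high control and culture medium alone as the low control. These readings gave the maximal degradation, Dmax and DC50.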

CDK2 = biological target: T3, CDK2 (Homo sapiens, UniProt P24941); assay: CDK2 HIBIT PQ (protein quantification), degradation; details: for CDK2 HIBIT PQ Max (%): Max = Maximum; for DC50: PQ = Protein Quantification
T3 construct: host or cells: HEK293
In short: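 DC50 and maximal degradation were derived from a HiBiT lytic readout in HEK293 cells carrying HiBiT-tagged CDK2. Cells were seeded in 384-well plates at 1.6×10^5 cells/well in 50 uL of DMEM with 10% FBS, incubated overnight at 37° C and 5% CO2, treated with compound for 6 hours, and then given 20 μL of HiBiT reagent with 20 minutes of shaking at room temperature before an EnVision reading. Wells with 0.1% DMSO served as the high control and wells with medium only as the low control.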

Compound | CCNE1 HIBIT PQ Max (%) (CCNE1) | Dmax (CDK9) | CDK2 HIBIT PQ Max (%) (CDK2) | DC50 (CDK2) | DC50 (CCNE1) | DC50 (CDK9)
CC(C)Oc1c(-c2cn[nH]c2)ncn2nc(Nc3ccc(S(=O)(=O)N(C)CCCN4CC5CC4CN5c4ccc5c(c4)n(C)c(=O)n5C4CCC(=O)NC4=O)cc3F)nc12 (stereo not drawn) [Compound 69] | 18% | 6% | 71% | 0.5 nM | – | –
CC(C)Oc1c(-c2cn[nH]c2)ncn2nc(Nc3ccc(S(=O)(=O)N4CCC[C@@H](CN5CC[C@H](c6ccc7c(N8CCC(=O)NC8=O)nn(C)c7c6)CC5(C)C)C4)cc3F)nc12 (single isomer, unassigned) [Compound 103] | 83% | 92% | 90% | 1 nM | 1.96 nM | 4.01 nM
CC(C)Oc1c(-c2cn[nH]c2)ncn2nc(Nc3ccc(S(=O)(=O)N4CCC5(CCCN5C5CCN(c6ccc7c(c6)n(C)c(=O)n7C6CCC(=O)NC6=O)CC5)C4)cc3F)nc12 (stereo not drawn) [Compound 37] | 30% | 51% | 84% | 2.9 nM | – | 43.7 nM
CC(C)Oc1c(-c2cn[nH]c2)ncn2nc(Nc3ccc(S(=O)(=O)c4cccc(CN5C6CC5CN(c5ccc7c(N8CCC(=O)NC8=O)nn(C)c7c5)C6)c4)cc3F)nc12 [Compound 45] | 33% | -10% | 85% | 4.3 nM | – | –
CC(C)Oc1c(-c2cn[nH]c2)ncn2nc(Nc3ccc(S(=O)(=O)c4cccc(CC5CC(c6ccc(C(=O)NC7CCC(=O)NC7=O)cc6)C5)c4)cc3F)nc12 (racemic) [Compound 32, rac-N-[(3R)-2,6-dioxopiperidin-3-yl]-4-(3-{[3-(3-fluoro-4-{[8-isopropoxy-7-(1H-pyrazol-4-yl)-[1,2,4]triazolo[1,5-c]pyrimidin-2-yl]amino}benzenesulfonyl)phenyl]methyl}cyclobutyl)benzamide] | 62% | 62% | 89% | 78.1 nM | > 3000 nM | 396 nM
CC(C)Oc1c(-c2cn[nH]c2)ncn2nc(Nc3ccc(S(=O)(=O)c4cccc(C[C@H]5C[C@@H](c6ccc7c(c6)CN([C@H]6CCC(=O)NC6=O)C7=O)C5)c4)cc3F)nc12 (stereo in doubt) [Compound 81, (S)-3-(5-((1r,3R)-3-(3-((3-fluoro-4-((8-isopropoxy-7-(1H-pyrazol-4-yl)-[1,2,4]triazolo[1,5-c]pyrimidin-2-yl)amino)phenyl)sulfonyl)benzyl)cyclobutyl)-1-oxoisoindolin-2-yl)piperidine-2,6-dione] | 57% | 1% | 86% | 24.2 nM | 62.8 nM | –
CC(C)Oc1c(-c2cn[nH]c2)ncn2nc(Nc3ccc(S(=O)(=O)N(C)CCCN4CCN(c5cccc6c5n(C)c(=O)n6C5CCC(=O)NC5=O)CC4)cc3F)nc12 (racemic) [Compound 17] | 83% | 77% | 91% | 0.26 nM | 0.94 nM | 2.7 nM
CC(C)Oc1c(-c2cn[nH]c2)ncn2nc(Nc3cc(F)c(S(=O)(=O)N(C)CCCN4CCC(c5ccc6c(c5)n(C)c(=O)n6C5CCC(=O)NC5=O)CC4)cc3F)nc12 (racemic) [Compound 60] | 74% | 75% | 93% | – | 0.45 nM | 1.52 nM
CC(C)Oc1c(-c2cn[nH]c2)ncn2nc(N[C@H]3CCN(S(=O)(=O)N(C)CCCN4CCC(c5cccc6c5n(C)c(=O)n6C5CCC(=O)NC5=O)CC4)C[C@H]3C)nc12 (stereo partly drawn) [Compound 7] | 96% | 91% | 92% | 1.07 nM | 0.76 nM | 2.13 nM
CC(C)Oc1c(-c2cn[nH]c2)ncn2nc(Nc3ccc(S(=O)(=O)c4cccc(C[C@H]5C[C@H](c6ccc7c(N8CCC(=O)NC8=O)nn(C)c7c6)C5)c4)cc3F)nc12 [Compound 89, rel-1-(6-((1s,3r)-3-(3-((3-fluoro-4-((8-isopropoxy-7-(1H-pyrazol-4-yl)-[1,2,4]triazolo[1,5-c]pyrimidin-2-yl)amino)phenyl)sulfonyl)benzyl)cyclobutyl)-1-methyl-1H-indazol-3-yl)dihydropyrimidine-2,4(1H,3H)-dione] | 38% | 17% | 70% | 43.4 nM | – | –
CC(C)Oc1c(-c2cn[nH]c2)ncn2nc(Nc3ccc(S(=O)(=O)N(C)CCCN4CCC(c5ccc6c(c5)n(C)c(=O)n6C5CCC(=O)NC5=O)CC4)c4cnccc34)nc12 (racemic) [Compound 61] | 72% | 78% | 86% | 0.3 nM | 1.55 nM | 3.2 nM
CC(C)Oc1c(-c2cn[nH]c2)ncn2nc(NC3CCN(S(=O)(=O)N4CCC(CN5CCC(c6cccc7c6n(C)c(=O)n7C6CCC(=O)NC6=O)CC5)CC4)CC3)nc12 (racemic) [Compound 6, rac-(R)-3-(4-(1-((1-((4-((8-isopropoxy-7-(1H-pyrazol-4-yl)-[1,2,4]triazolo[1,5-c]pyrimidin-2-yl)amino)piperidin-1-yl)sulfonyl)piperidin-4-yl)methyl)piperidin-4-yl)-3-methyl-2-oxo-2,3-dihydro-1H-benzo[d]imidazol-1-yl)piperidine-2,6-dione] | 73% | 103% | 80% | 0.59 nM | 0.88 nM | 1.48 nM
CC(C)Oc1c(-c2cn[nH]c2)ncn2nc(NC3CCN(S(=O)(=O)c4cccc(CN5CCC(c6ccc7c(N8CCC(=O)NC8=O)nn(C)c7c6)CC5)c4)CC3)nc12 [Compound 1, 1-(6-(1-(3-((4-((8-isopropoxy-7-(1H-pyrazol-4-yl)-[1,2,4]triazolo[1,5-c]pyrimidin-2-yl)amino)piperidin-1-yl)sulfonyl)benzyl)piperidin-4-yl)-1-methyl-1H-indazol-3-yl)dihydropyrimidine-2,4(1H,3H)-dione] | 92% | 104% | 93% | 1.62 nM | 1.94 nM | 2.98 nM

The remaining molecules from weak to strong by DC50 (CDK2), led by results:

CCNE1 HIBIT PQ Max (%) (CCNE1) | Dmax (CDK9) | CDK2 HIBIT PQ Max (%) (CDK2) | DC50 (CDK2) | DC50 (CCNE1) | DC50 (CDK9) | Compound
71% | – | 93% | 12 nM | 63.1 nM | – | CC(C)Oc1c(-c2cn[nH]c2)ncn2nc(Nc3ccc(S(=O)(=O)c4cccc(CN5CCN(c6ccc7c(N8CCC(=O)NC8=O)nn(C)c7c6)CC5C(C)C)c4)cc3F)nc12 (single isomer, unassigned) [Compound 107]
59% | – | 94% | 8.3 nM | 39.4 nM | – | CC(C)Oc1c(-c2cn[nH]c2)ncn2nc(Nc3ccc(S(=O)(=O)c4cccc(CN5CCN(c6ccc7c(N8CCC(=O)NC8=O)nn(C)c7c6)CC5C(C)C)c4)cc3F)nc12 (single isomer, unassigned) [Compound 106]
25% | 18% | 61% | 6.5 nM | – | – | CC(C)Oc1c(-c2cn[nH]c2)ncn2nc(Nc3ccc(S(=O)(=O)N4CCCC(CN5CCN(c6ccc7c(N8CCC(=O)NC8=O)nn(C)c7c6)C6CC65)C4)cc3F)nc12 (stereo not drawn) [Compound 88]
62% | 8% | 89% | 2.2 nM | 4.06 nM | – | CC(C)Oc1c(-c2cn[nH]c2)ncn2nc(Nc3ccc(S(=O)(=O)c4cccc(CN5CC(c6ccc7c(c6)CN(C6CCC(=O)NC6=O)C7=O)C5)c4)cc3F)nc12 (racemic) [Compound 12]
94% | 104% | 92% | 1.67 nM | 3.16 nM | 3.91 nM | CC(C)Oc1c(-c2cn[nH]c2)ncn2nc(N[C@H]3CCN(S(=O)(=O)c4cccc(CN5CCC(c6ccc7c(N8CCC(=O)NC8=O)nn(C)c7c6)CC5)c4)C[C@H]3C)nc12 [Compound 5]
41% | 19% | 68% | 0.6 nM | – | – | CC(C)Oc1c(-c2cn[nH]c2)ncn2nc(Nc3ccc(S(=O)(=O)N4CCC[C@H](CN5CC[C@H](c6ccc7c(N8CCC(=O)NC8=O)nn(C)c7c6)CC5(C)C)C4)cc3F)nc12 (relative stereo) [Compound 97, rel-1-(6-((R)-1-(((S)-1-((3-fluoro-4-((8-isopropoxy-7-(1H-pyrazol-4-yl)-[1,2,4]triazolo[1,5-c]pyrimidin-2-yl)amino)phenyl)sulfonyl)piperidin-3-yl)methyl)-2,2-dimethylpiperidin-4-yl)-1-methyl-1H-indazol-3-yl)dihydropyrimidine-2,4(1H,3H)-dione]
65% | 75% | 91% | 0.1 nM | 0.92 nM | 1.22 nM | CC(C)Oc1c(-c2cn[nH]c2)ncn2nc(Nc3ccc(S(=O)(=O)N(C)CCCN4CCN(c5ccc6c(c5)n(C)c(=O)n6C5CCC(=O)NC5=O)C[C@@H]4C)cc3F)nc12 (stereo partly drawn) [Compound 62]
